Experiments:
[1] = test system: LS174T cells; test: Western blot analysis of LS174T cells treated with azido-sugars; format: cell-based; conditions: 72 h
Method: Western blot analysis of cells treated with azido-sugars. LS174T cells were seeded onto cell culture flasks (25 cm^2 growth area) at a density of 1×10^6 cells per plate in 5 mL of media. Different azido-sugars were added and incubated with cells for 72 h. The cells were washed with PBS twice and harvested from the flasks using a cell scraper. Cells were pelleted by centrifugation at 1000 rpm for 5 min and re-suspended in 200 μL of lysis buffer (1% SDS, 100 mM Tris.HCl, pH 7.4) containing 1 tablet protease inhibitor (EDTA-free). The lysate was incubated at 4° C. for 30 min, followed by centrifugation at 3000 rcf for 10 min to remove insoluble debris. The total concentration of soluble protein in each sample was determined by bicinchoninic acid (BCA) assay and adjusted to the same concentration. Then 20 μL of the lysate was taken out and incubated with phosphine-PEG3-biotin (2 μL, 5 mM in PBS) at 37° C. for 6 h. Loading buffer was added to each sample and samples were loaded onto 10% SDS-PAGE gel after heating at 95° C. After running the gel for 100 min, proteins were transferred to Hybond P membrane, followed by blocking of the membrane with 5% bovine serum albumin (BSA) in TBST (50 mM Tris.HCl, 150 mM NaCl, 0.1% Tween 20, pH 7.4) for 2 h. The membrane was then incubated with streptavidin-HRP (diluted 1:2000 in TBST) overnight at 4° C., rinsed with TBST for three times and developed by ECL Western Blotting Substrate. For fluorescent visualization of protein bands, 20 μL of cell lysate was directly incubated with DBCO-Cy3 solution for 3 h. After the gel running and membrane transfer, protein bands were visualized using an Image Quant LAS 4010 system with a Cy3/Cy3 (excitation/emission) channel.

[2] = test system: LS174T colon cancer cells; test: Metabolic labeling of LS174T cells with azido-sugars, azides detected by DBCO-Cy5 (confocal imaging, flow cytometry); format: cell-based; conditions: LS174T cells
Method: General procedures for confocal imaging of azido-sugar labeled cells. Cells were seeded onto coverslips in a 6-well plate at a cell density of 40 k/well. Ac4ManAz or Ac3ManAz derivatives were added with a final concentration of 50 μM and the cells were incubated at 37° C. for 72 h. The medium was removed and washed with PBS for three times. DBCO-Cy5 (50 μM) in Opti-MEM was then added and the cells were incubated for another 1 h. Then the medium was removed and the cells were washed with PBS for three times. 4% paraformaldehyde (PFA) solution was added to fix the cells for 10 min, followed by staining of cell nucleus with DAPI (2 μg/mL) for 10 min. The coverslips were mounted on microscope slides with the addition of ProLong Gold antifade reagent, and the prepared sample was stored in dark for imaging.
General procedures for flow cytometry analysis of azido-sugar labeled cells. Cells were seeded onto coverslips in a 6-well plate at a cell density of 40 k/well. Ac4ManAz or Ac3ManAz derivatives were added and incubated with cells for 72 h. After removal of medium and multiple washing steps, DBCO-Cy5 in opti-MEM was added and incubated with cells at 37° C. for 1 h. The opti-MEM was then removed and cells were washed with PBS for three times. Cells were lifted by incubating with trypsin solution (1 mL) at 37° C. for 3 min and transferred to test tubes with addition of 4% PFA solution (0.5 mL). Twenty thousand cells per sample were analyzed by flow cytometry and data analysis was performed on the FCS Express software.
Ac3ManAzNB mediated controlled cell labeling. LS174T cells were seeded onto coverslips in a 6-well plate at a cell density of 40 k/well. Ac3ManAzNB with a final concentration of 50 μM was added. […] Cells without UV irradiation were continuously incubated for 72 h. Cell samples for confocal imaging and flow cytometry were then prepared following the above-mentioned procedures.
Ac3ManAzHQ mediated controlled cell labeling. LS174T colon cancer cells or Caco-2 colon cancer cells or human fibroblast IMR90 cells were seeded onto coverslips in a 6-well plate at a cell density of 40 k/well and allowed to attach for overnight. Ac3ManAzHQ with a final concentration of 50 μM was added, followed by the addition of curcumin with a final concentration of 50 μM. Cells treated with PBS or Ac3ManAzHQ only were used as control. After 72-h incubation, cell samples for confocal imaging and flow cytometry were prepared following the above-mentioned procedures.
E-S mediated controlled cell labeling in vitro. LS174T colon cancer cells or human fibroblast IMR90 cells were seeded onto coverslips in a 6-well plate at a cell density of 40 k/well. E-S with a final concentration of 50 μM was added, followed by the addition of either TSA (1 μM) or Z-FY-CHO (50 μM). Cells treated with PBS or E-S only were used as the control. After 72-h incubation, the medium was removed and cell samples for confocal imaging and GE-Analyzer measurements were prepared similarly to above-mentioned procedures.

[3] = test system: subcutaneous LS174T tumors; test: In vivo tumor labeling after intratumoral injection of azido-sugars, DBCO-Cy5 i.v.; set-up: species or system athymic nude mice
Method: In vivo tumor labeling of Ac4ManAz, Ac3ManAzEt, and Ac3ManAzNB. LS174T tumor models were established on 6 week-old athymic nude mice by subcutaneous injection of LS174T colon cancer cells (1.5 million) in HBSS/matrigel (1/1, v/v) to both flanks. When the tumors grew to 5-6 mm, Ac4ManAz or Ac3ManAzEt or Ac3ManAzNB (25 mM, 20 μL) was injected into the left tumors once daily for three days while the same amount of PBS was injected to the right tumors as control (N=3 per group). At 24 h post the last injection, DBCO-Cy5 (5 mg/kg) was i.v. injected and its biodistribution was monitored via in vivo fluorescence imaging. Prior to imaging, nude mice were placed on the sample stage equipped with anesthesia input and output ports, and imaged by the Maestro In-Vivo Fluorescence Imaging System. The excitation filter of 575-605 nm was used. The tunable emission filter was automatically stepped in 10-nm increments from 630 to 850 nm with an exposure time of 50 ms for images taken at each wavelength. Collected images were analyzed by the Maestro software, which uses spectral unmixing algorithms to subtract autofluorescence from Cy5 signals. Tumors and major organs were harvested from mice at 24 h post injection of DBCO-Cy5. Ex vivo images were collected similarly using the Maestro system. Fluorescence intensity at selected ROIs was quantified using Maestro imaging software. All values were presented as means±standard deviation (n=3).
Western blot analysis of tissues. Tumors and organs harvested from azido-sugar treated mice were transferred into glass tubes containing 2 mL of lysis buffer (1% SDS, 100 mM Tris HCl, pH 7.4), homogenized, and incubated at 4° C. for 30 min. The lysates were then centrifuged at 3000 rcf for 10 min to remove the insoluble debris. Total soluble protein concentrations were determined by BCA assay and adjusted to 5 mg/mL for each group. The rest of procedures were the same as the above-mentioned western blot analysis of cells.
Confocal imaging of tumor tissue sections. After ex vivo imaging, tumors were directly frozen in O.C.T. compound and sectioned on a cryostat (Leica CM3050S) with a thickness of 6-8 μm. DAPI in PBS (2 μg/mL) was added onto the tissue-attaching microscope slides to stain cell nucleus. After 10 min, DAPI solution was removed and tissues were washed with PBS for three times. Coverslips were mounted on the microscope slides with the addition of ProLong Gold antifade reagent, and the prepared sample was stored in dark for confocal imaging.

[4] = test system: LS174T tumors; test: E-S mediated cancer-selective labeling in vivo, western blot analysis of tissues; set-up: species or system athymic nude mice; conditions: i.v. once daily three days, 24 h p.i.; liver, spleen, heart, lung, kidney
Method: (1) Western blot analysis of tissues. LS174T tumor models were established in 6 week-old athymic nude mice by subcutaneous injection of LS174T colon cancer cells (1.5 million) in HBSS/matrigel (1/1, v/v). When the tumors grew to 5-6 mm, E-S (60 mg/kg) was i.v. injected once daily for three days. Mice i.v. administered with Ac4ManAz (40 mg/kg, 10% DMSO in PBS) or PBS were used as control. At 24 h post the last injection, tumors and major organs were harvested, transferred into lysis buffer (2 mL), and homogenized. The lysates were incubated at 4° C. for 30 min, and insoluble debris was removed by centrifugation at 3000 rpm for 10 min. Total soluble protein concentrations were determined by BCA assay and adjusted to 5 mg/mL for each group. The rest of procedures were the same as the abovementioned general procedures for western blot analysis. Azido-labeled protein bands in tumor tissues and healthy tissues of all three groups were visualized and compared to understand the cancer-selective labeling capability of E-S in vivo.

[5] = in vivo
Method: Liver, heart, kidneys, spleen, brain, sternum and spinal cord (cervical thoracic and lumbar) were fixed in formalin, paraffin-embedded, sectioned with a thickness of 4 μm, and stained with H&E. Tissues were analyzed by a board-certified pathologist to investigate treatment-mediated toxicity. These analyses were performed by a board certified pathologist.

| SMILES | Western blot of azido-glycoproteins (biotinylated with phosphine-PEG3-biotin) [1] | Cy5 fluorescence on the cell surface (CLSM) ([2]; 50 μM azido-sugar three days (72 h), then DBCO-Cy5 1 h) | Cy5 fluorescence by flow cytometry ([2]; compared with cells treated with Ac3ManAzEt or PBS) | In vivo Cy5 fluorescence intensity of pretreated left tumors vs control right tumors ([3]; 24 h p.i. of i.v. DBCO-Cy5) | Ex vivo increase in Cy5 FI compared to the control tumors ([3]; ex vivo imaging of tumors) | Western blot of tumors (azido-modified glycoproteins) ([3]; intratumoral once daily for three days, tumors harvested 24 h p.i.) | Cy5 fluorescence of tumor sections (confocal imaging) ([3]; tumor sections after ex vivo imaging) | Azido-modified proteins in normal tissues (western blot) [4] | Toxicity in mouse tissues (bone marrow, spleen) [5] |
| --- | --- | --- | --- | --- | --- | --- | --- | --- | --- |
| CC(=O)OC[C@H]1OC(OC(C)=O)[C@@H](NC(=O)CN=[N+]=[N-])[C@@H](OC(C)=O)[C@@H]1OC(C)=O (stereo partly drawn) [Ac4ManAz, tetraacetyl N-azidoacetylmannosamine] | a series of protein bands | strong Cy5 fluorescence on the cell surface | significantly enhanced Cy5 fluorescence | much stronger Cy5 fluorescence intensity | over 4 fold | a series of azido-modified glycoproteins | strong Cy5 fluorescence | non-specific labeling in normal tissues |  |
| COc1cccc2c1C(=O)c1c(O)c3c(c(O)c1C2=O)C[C@@](O)(C(=O)CO)C[C@@H]3O[C@H]1C[C@H](N)[C@H](O)[C@H](C)O1 [Doxo, doxorubicin] |  |  |  |  |  |  |  |  | much greater toxicity |

From patent US11014953B2, “Trigger-activatable metabolic sugar precursors for cancer-selective labeling and targeting” (priority 2015, dated 2021)
